Laboratory results reported in the OligoGym collection.
“And” between values parts separate entries of the source, which are not always exact repeats. Equal entries are not always repeated. After the bases stand the sugars from the 5' end (letter, count) and the backbone: PS all phosphorothioate, else s phosphorothioate and o phosphodiester by linkage. Methylation of C is not given here. k = constrained ethyl (cEt); d = 2'-deoxy (DNA)

Each sequence was assayed against MALAT1. Conditions: ASO, A431, 0.005 µM.

| Sequence | target mRNA inhibition |
| --- | --- |
| CACACTGGCATGCTGG (sugars k3 d10 k3, PS) | 9% |
| CACAGCTCGGGCGAGG (sugars k3 d10 k3, PS) | 25% |
| CACCAATCCCAACCGT (sugars k3 d10 k3, PS) | 5% |
| CACCCAAAAGCCCTCT (sugars k3 d10 k3, PS) | 17% |
| CACCCTCTAAGAGACA (sugars k3 d10 k3, PS) | 1% |
| CACCTGGGTCAGCTGT (sugars k3 d10 k3, PS) | 25% |
| CACGAACTGCTGCTTG (sugars k3 d10 k3, PS) | 55% |
| CACGGATTTTTACCAA (sugars k3 d10 k3, PS) | 19% |
| CACGGCCCGCACGGAA (sugars k3 d10 k3, PS) | -1% |
| CACTCCCAATTAATCT (sugars k3 d10 k3, PS) | 8% |
| CACTCTGATCTGCGGC (sugars k3 d10 k3, PS) | -28% |
| CACTGCAAGGTCTCAT (sugars k3 d10 k3, PS) | 41% |
| CACTTGATCCCAACTC (sugars k3 d10 k3, PS) | 44% |
| CACTTTAGAGGCTTTT (sugars k3 d10 k3, PS) | 42% |
| CAGAAGCCCCTGCGCT (sugars k3 d10 k3, PS) | 3% |
| CAGAGTTTGAGTGGTT (sugars k3 d10 k3, PS) | 16% |
| CAGCACAGCGGTACAC (sugars k3 d10 k3, PS) | 7% |
| CAGCACATCATGCTAT (sugars k3 d10 k3, PS) | 15% |
| CAGCACGGGCTGTCTG (sugars k3 d10 k3, PS) | -33% |
| CAGCAGTAGGGCTTCT (sugars k3 d10 k3, PS) | -1% |
| CAGCCTATAAGGACAG (sugars k3 d10 k3, PS) | 22% |
| CAGGACTTGGCAGTCT (sugars k3 d10 k3, PS) | 14% |
| CAGGAGTGCCAACCAC (sugars k3 d10 k3, PS) | -2% |

| Sequence | target mRNA inhibition |
| --- | --- |
| CAGGCTATTACCTGAA (sugars k3 d10 k3, PS) | -14% |
| CAGGGTTATGCTTATT (sugars k3 d10 k3, PS) | 75% and 66% |
| CAGTAACATCTGATTC (sugars k3 d10 k3, PS) | 57% and 78% |
| CAGTACTGCATTTACT (sugars k3 d10 k3, PS) | 20% |
| CAGTAGGGCTTCTCAA (sugars k3 d10 k3, PS) | 10% |
| CAGTAGTAAGAATCTC (sugars k3 d10 k3, PS) | 54% |
| CATAACTGATCTGACT (sugars k3 d10 k3, PS) | -5% |
| CATATTGCCGACCTCA (sugars k3 d10 k3, PS) | 43% |
| CATGAGTATAAGCCTG (sugars k3 d10 k3, PS) | 50% |
| CATGAGTTTATCTGCA (sugars k3 d10 k3, PS) | -6% |
| CATGTGCCTGGAATTA (sugars k3 d10 k3, PS) | 26% |
| CATTAAGTTGGTAATT (sugars k3 d10 k3, PS) | 12% |
| CATTTATTTCGGCTTC (sugars k3 d10 k3, PS) | 66% and 90% |
| CATTTGGCCTACTCAA (sugars k3 d10 k3, PS) | 34% |
| CCAAACAACTTTTGCA (sugars k3 d10 k3, PS) | 44% |
| CCAACCACTCGCTTTC (sugars k3 d10 k3, PS) | 26% |
| CCAACTAATTGCCAAT (sugars k3 d10 k3, PS) | 40% |
| CCAACTTGGAAGTTGA (sugars k3 d10 k3, PS) | 31% |
| CCAAGCTACTGGCTGC (sugars k3 d10 k3, PS) | 23% |
| CCAATATTTGCCCCTC (sugars k3 d10 k3, PS) | 40% |
| CCACCAAAGACCTCGA (sugars k3 d10 k3, PS) | 27% |
| CCACGCCAACACAGTT (sugars k3 d10 k3, PS) | 31% |
| CCACTCGCTTTCCCTG (sugars k3 d10 k3, PS) | 41% |

| Sequence | target mRNA inhibition |
| --- | --- |
| CCACTCTAAGATTGTA (sugars k3 d10 k3, PS) | 40% |
| CCAGCCTATAAGGACA (sugars k3 d10 k3, PS) | -1% |
| CCAGGAGTGCCAACCA (sugars k3 d10 k3, PS) | 5% |
| CCAGGCTGGTTATGAC (sugars k3 d10 k3, PS) | 44% |
| CCATTACGCAACTGAG (sugars k3 d10 k3, PS) | 12% |
| CCCAAAAGCCCTCTCA (sugars k3 d10 k3, PS) | 12% |
| CCCAAATTAATGCACT (sugars k3 d10 k3, PS) | 51% and 42% |
| CCCACCAAAGACCTCG (sugars k3 d10 k3, PS) | 31% |
| CCCACCCTCTAAGAGA (sugars k3 d10 k3, PS) | -4% |
| CCCAGTTTGTCAATAG (sugars k3 d10 k3, PS) | 39% |
| CCCATAATTGTAGTTA (sugars k3 d10 k3, PS) | 45% |
| CCCCAACTGCTTGCAG (sugars k3 d10 k3, PS) | 13% |
| CCCCAATCAAGATTTT (sugars k3 d10 k3, PS) | -21% |
| CCCCACGGCCCGCACG (sugars k3 d10 k3, PS) | -9% |
| CCCCAGTCCTTTACAG (sugars k3 d10 k3, PS) | 9% |
| CCCCATATAAATCCCT (sugars k3 d10 k3, PS) | -7% |
| CCCCCATTATATTAGA (sugars k3 d10 k3, PS) | 28% |
| CCCCCCCAAGATTGCC (sugars k3 d10 k3, PS) | -16% |
| CCCCCCGCCTCAGTTA (sugars k3 d10 k3, PS) | -7% |
| CCCCCGCCTCAGTTAC (sugars k3 d10 k3, PS) | 28% |
| CCCGCCTGAGCCCCGG (sugars k3 d10 k3, PS) | -2% |
| CCCGGAAATCGGCCTA (sugars k3 d10 k3, PS) | 0% |
| CCCTATATAAGGTCAA (sugars k3 d10 k3, PS) | 13% |

| Sequence | target mRNA inhibition |
| --- | --- |
| CCCTCCCCTTTAATAA (sugars k3 d10 k3, PS) | -17% |
| CCGCCTCTTAAAGCAC (sugars k3 d10 k3, PS) | -9% |
| CCGCCTGAGCCCCGGG (sugars k3 d10 k3, PS) | -9% |
| CCGCTAAGATGCTAGC (sugars k3 d10 k3, PS) | 20% |
| CCGGAAATCGGCCTAC (sugars k3 d10 k3, PS) | 20% |
| CCGTTTTTCAGCTTCC (sugars k3 d10 k3, PS) | 6% |
| CCTAGCTTCCTTCACC (sugars k3 d10 k3, PS) | 17% |
| CCTCTAAGAGACATTC (sugars k3 d10 k3, PS) | 29% |
| CCTGAAAAAGTCTTAG (sugars k3 d10 k3, PS) | 28% |
| CCTGGGTCAGCTGTCA (sugars k3 d10 k3, PS) | 51% |
| CCTGTTAAGACCATCC (sugars k3 d10 k3, PS) | 40% |
| CCTTAAAGTTACATTC (sugars k3 d10 k3, PS) | 33% |
| CCTTAGGATAATAGCG (sugars k3 d10 k3, PS) | 60% and 51% |
| CCTTCCCTATATAAGG (sugars k3 d10 k3, PS) | -41% |
| CCTTCTATTGGTATTA (sugars k3 d10 k3, PS) | 28% |
| CCTTGAAACCGATTAT (sugars k3 d10 k3, PS) | 36% |
| CGAACTGCTGCTTGCT (sugars k3 d10 k3, PS) | 40% |
| CGAAGAGATACCTGTC (sugars k3 d10 k3, PS) | 23% |
| CGCACGGAAATTTTTC (sugars k3 d10 k3, PS) | -17% |
| CGCCAGCCCCCCACGG (sugars k3 d10 k3, PS) | -45% |
| CGCCGCAGGGATTTGA (sugars k3 d10 k3, PS) | 19% |
| CGCTTTGTTGTCTCTC (sugars k3 d10 k3, PS) | 87% and 99% |
| CGCTTTTATTCTGCTT (sugars k3 d10 k3, PS) | 6% |

| Sequence | target mRNA inhibition |
| --- | --- |
| CGGAAATCGGCCTACG (sugars k3 d10 k3, PS) | 30% |
| CGGATTTTTACCAACC (sugars k3 d10 k3, PS) | 38% |
| CGGCCCGCACGGAAAT (sugars k3 d10 k3, PS) | 24% |
| CGTAACAGGCCACTGC (sugars k3 d10 k3, PS) | 2% |
| CGTGAAAACCCACTCT (sugars k3 d10 k3, PS) | -6% |
| CGTGAGAACTGCTCTA (sugars k3 d10 k3, PS) | 37% |
| CGTGTGGAAAGATTTG (sugars k3 d10 k3, PS) | 0% |
| CGTTACGAAAGTCCTT (sugars k3 d10 k3, PS) | 25% |
| CTAAATACCACCACCT (sugars k3 d10 k3, PS) | 12% |
| CTAAGATAGCAGCACA (sugars k3 d10 k3, PS) | 11% |
| CTAAGATTGTAAGCAT (sugars k3 d10 k3, PS) | 28% |
| CTAAGCAATATCTTAG (sugars k3 d10 k3, PS) | 15% |
| CTACACAATTTACATC (sugars k3 d10 k3, PS) | 22% |
| CTACATTTACAAAACG (sugars k3 d10 k3, PS) | 29% |
| CTACTGAAGAGCATTG (sugars k3 d10 k3, PS) | 22% |
| CTACTTTAAGCCTTCG (sugars k3 d10 k3, PS) | 31% |
| CTAGGGAAAAGTGGTT (sugars k3 d10 k3, PS) | -22% |
| CTATCTTCACCACGAA (sugars k3 d10 k3, PS) | 40% |
| CTCAAAGTCCAATGCA (sugars k3 d10 k3, PS) | 48% |
| CTCAGTACGAAACTCC (sugars k3 d10 k3, PS) | 30% |
| CTCCAATACTTGTCTT (sugars k3 d10 k3, PS) | 54% and 44% |
| CTCCAATGGACATCTC (sugars k3 d10 k3, PS) | 29% |
